Values joined by “and” are separate entries in the source; they are usually repeats but may differ in a detail not shown here. Equal values may be shown once.
How the values were obtained:
[1] = target: Methyl-CpG-binding domain protein 4 (Homo sapiens) (UniProt O95243); details: Compound Concentration 10.0 uM, Hit No;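 further: MBD4 activity read as fluorescence at 594 nm from cleavage and release of a quenched duplex DNA oligonucleotide, with APE1 coupled to incise the strand and raise turnover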
Chain of Methyl-CpG-binding domain protein 4 (Homo sapiens) (O95243 whole entry, the tested form may be a part): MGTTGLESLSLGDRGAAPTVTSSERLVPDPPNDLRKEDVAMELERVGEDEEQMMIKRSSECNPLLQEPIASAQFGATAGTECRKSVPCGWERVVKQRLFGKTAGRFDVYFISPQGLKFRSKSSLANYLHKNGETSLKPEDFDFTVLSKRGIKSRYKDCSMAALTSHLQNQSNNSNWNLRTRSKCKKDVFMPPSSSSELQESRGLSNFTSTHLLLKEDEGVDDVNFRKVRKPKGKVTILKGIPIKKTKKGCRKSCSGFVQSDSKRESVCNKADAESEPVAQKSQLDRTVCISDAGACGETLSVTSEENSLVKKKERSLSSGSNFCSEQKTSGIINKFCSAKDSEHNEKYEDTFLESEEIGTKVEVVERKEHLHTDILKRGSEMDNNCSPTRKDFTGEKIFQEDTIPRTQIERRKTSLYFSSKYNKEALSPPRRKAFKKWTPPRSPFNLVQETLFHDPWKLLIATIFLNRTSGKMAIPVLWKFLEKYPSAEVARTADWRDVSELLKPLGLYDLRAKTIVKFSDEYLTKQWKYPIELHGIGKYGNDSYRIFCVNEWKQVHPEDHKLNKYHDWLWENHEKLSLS
Description: Inhibition of MBD4 by quantifying inhibition of MBD4-mediated cleavage and dissociation of quenched duplex DNA oligonucleotides, measured as fluorescence at 594 nm. To generate a functional strand incision and increase turn-over this assay is coupled to APE1.

[2] = target: DNA-3-methyladenine glycosylase (Homo sapiens) (UniProt P29372); details: Compound Concentration 10.0 uM, Hit No;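 further: enzyme assay where MPG cuts a quenched duplex DNA oligonucleotide probe, paired with APE1 for strand incision and turnover, read as fluorescence at 594 nm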
Chain of DNA-3-methyladenine glycosylase (Homo sapiens) (P29372 whole entry): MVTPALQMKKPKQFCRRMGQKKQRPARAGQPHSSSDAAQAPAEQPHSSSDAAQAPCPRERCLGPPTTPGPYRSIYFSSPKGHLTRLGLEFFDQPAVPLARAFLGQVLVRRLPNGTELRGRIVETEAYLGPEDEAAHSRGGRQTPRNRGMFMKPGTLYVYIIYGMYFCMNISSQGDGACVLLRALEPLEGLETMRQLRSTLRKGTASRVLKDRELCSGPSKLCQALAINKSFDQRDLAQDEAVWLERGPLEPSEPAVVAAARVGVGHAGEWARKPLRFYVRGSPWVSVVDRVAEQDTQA
Description: Inhibition of MPG by quantifying inhibition of MPG-mediated cleavage and dissociation of quenched duplex DNA oligonucleotides, measured as fluorescence at 594 nm. To generate a functional strand incision and increase turn-over this assay is coupled to APE1.

[3] = target: T1, Adenine DNA glycosylase (Homo sapiens) (UniProt Q9UIF7); details: Compound Concentration 10.0 uM, Hit No;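 further: human MUTYH activity read as 594 nm fluorescence from cleavage and release of a quenched DNA duplex, coupled with APE1 for strand incision, lower signal meaning inhibition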
T1 sequence (whole entry): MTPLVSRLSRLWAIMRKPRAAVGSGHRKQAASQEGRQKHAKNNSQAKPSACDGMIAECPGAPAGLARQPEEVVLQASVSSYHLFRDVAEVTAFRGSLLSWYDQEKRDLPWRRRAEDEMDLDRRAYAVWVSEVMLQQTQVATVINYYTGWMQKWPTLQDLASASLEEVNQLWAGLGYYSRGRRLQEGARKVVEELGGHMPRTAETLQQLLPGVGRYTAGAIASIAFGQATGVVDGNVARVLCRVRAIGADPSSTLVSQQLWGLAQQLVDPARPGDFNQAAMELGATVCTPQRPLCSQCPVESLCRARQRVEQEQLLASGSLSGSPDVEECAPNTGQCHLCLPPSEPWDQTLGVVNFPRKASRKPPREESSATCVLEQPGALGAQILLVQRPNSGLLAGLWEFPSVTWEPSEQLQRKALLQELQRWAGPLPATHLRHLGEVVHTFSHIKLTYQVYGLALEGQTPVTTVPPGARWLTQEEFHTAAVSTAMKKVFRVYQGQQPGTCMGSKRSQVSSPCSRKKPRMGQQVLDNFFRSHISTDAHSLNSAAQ
Description: Inhibition of MUTYH by quantifying inhibition of MUTYH-mediated cleavage and dissociation of quenched duplex DNA oligonucleotides, measured as fluorescence at 594 nm. To generate a functional strand incision and increase turn-over this assay is coupled to APE1.

[4] = target: Endonuclease 8-like 1 (Homo sapiens) (UniProt Q96FI4); details: Compound Concentration 10.0 uM, Hit No;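 further: fluorescence at 594 nm from quenched duplex DNA oligonucleotides released by NEIL1 cleavage and strand separation, reported as reduction of this enzyme activity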
Chain of Endonuclease 8-like 1 (Homo sapiens) (Q96FI4 whole entry): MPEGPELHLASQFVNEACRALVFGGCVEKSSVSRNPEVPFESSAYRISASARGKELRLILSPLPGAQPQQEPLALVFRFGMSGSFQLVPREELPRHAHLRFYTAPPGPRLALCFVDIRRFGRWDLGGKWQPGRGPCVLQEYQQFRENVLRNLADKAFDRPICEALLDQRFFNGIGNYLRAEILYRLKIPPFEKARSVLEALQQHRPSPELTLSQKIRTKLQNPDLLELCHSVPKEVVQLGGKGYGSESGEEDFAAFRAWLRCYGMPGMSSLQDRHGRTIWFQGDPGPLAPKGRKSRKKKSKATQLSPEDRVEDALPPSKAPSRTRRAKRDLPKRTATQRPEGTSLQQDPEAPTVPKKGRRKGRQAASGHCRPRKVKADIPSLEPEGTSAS
Description: Inhibition of NEIL1 by quantifying inhibition of NEIL1-mediated cleavage and dissociation of quenched duplex DNA oligonucleotides, measured as fluorescence at 594 nm.

[5] = target: T2, Endonuclease 8-like 2 (Homo sapiens) (UniProt Q969S2); details: Compound Concentration 10.0 uM;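 further: fluorescence at 594 nm reports NEIL2 cutting and release of a quenched double-stranded DNA oligo substrate, reduced signal read as inhibition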
T2 sequence (whole entry): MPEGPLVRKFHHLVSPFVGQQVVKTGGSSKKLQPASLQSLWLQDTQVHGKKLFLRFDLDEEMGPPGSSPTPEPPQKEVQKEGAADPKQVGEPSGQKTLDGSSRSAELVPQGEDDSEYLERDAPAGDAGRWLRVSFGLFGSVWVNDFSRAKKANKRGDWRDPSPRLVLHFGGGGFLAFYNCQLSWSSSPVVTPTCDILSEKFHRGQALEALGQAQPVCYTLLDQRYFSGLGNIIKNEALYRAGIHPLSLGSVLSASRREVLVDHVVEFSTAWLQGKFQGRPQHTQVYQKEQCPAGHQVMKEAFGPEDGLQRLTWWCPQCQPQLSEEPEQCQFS
Description: Inhibition of NEIL2 by quantifying inhibition of NEIL2-mediated cleavage and dissociation of quenched duplex DNA oligonucleotides, measured as fluorescence at 594 nm.

[6] = target: T3, Endonuclease III-like protein 1 (Homo sapiens) (UniProt P78549); details: Compound Concentration 10.0 uM, Hit No;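 further: enzyme assay tracking NTHL1 cutting and release of a quenched double-stranded DNA oligo substrate, read as fluorescence at 594 nm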
T3 sequence (whole entry): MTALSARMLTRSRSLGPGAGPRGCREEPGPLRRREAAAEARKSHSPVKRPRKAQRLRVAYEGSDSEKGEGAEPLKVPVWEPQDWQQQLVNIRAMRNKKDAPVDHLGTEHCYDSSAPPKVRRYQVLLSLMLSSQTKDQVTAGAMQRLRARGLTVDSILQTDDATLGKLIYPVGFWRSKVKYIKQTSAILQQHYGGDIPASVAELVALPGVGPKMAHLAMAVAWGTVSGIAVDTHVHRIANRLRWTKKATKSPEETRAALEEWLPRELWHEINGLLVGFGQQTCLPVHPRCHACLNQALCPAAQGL
Description: Inhibition of NTHL1 by quantifying inhibition of NTHL1-mediated cleavage and dissociation of quenched duplex DNA oligonucleotides, measured as fluorescence at 594 nm.

[7] = target: N-glycosylase/DNA lyase (Homo sapiens) (UniProt O15527); details: Compound Concentration 10.0 uM, Hit No;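 further: OGG1 cleavage of a quenched duplex DNA oligonucleotide, coupled to APE1 for strand incision, read as fluorescence at 594 nm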
Chain of N-glycosylase/DNA lyase (Homo sapiens) (O15527 whole entry): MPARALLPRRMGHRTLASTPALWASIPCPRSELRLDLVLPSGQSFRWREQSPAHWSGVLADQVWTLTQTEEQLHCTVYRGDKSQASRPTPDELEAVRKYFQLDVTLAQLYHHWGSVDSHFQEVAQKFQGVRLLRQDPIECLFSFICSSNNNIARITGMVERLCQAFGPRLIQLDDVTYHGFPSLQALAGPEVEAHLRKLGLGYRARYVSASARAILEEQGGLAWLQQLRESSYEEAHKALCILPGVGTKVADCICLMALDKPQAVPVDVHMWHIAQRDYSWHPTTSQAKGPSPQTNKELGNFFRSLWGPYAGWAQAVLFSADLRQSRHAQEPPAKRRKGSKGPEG
Description: Inhibition of OGG1 by quantifying inhibition of OGG1-mediated cleavage and dissociation of quenched duplex DNA oligonucleotides, measured as fluorescence at 594 nm. To generate a functional strand incision and increase turn-over this assay is coupled to APE1.

[8] = target: T4, Single-strand selective monofunctional uracil DNA glycosylase (Homo sapiens) (UniProt Q53HV7); details: Compound Concentration 10.0 uM, Hit No;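 further: enzymatic SMUG1 assay coupled with APE1, reading fluorescence at 594 nm released when a quenched double-stranded DNA oligonucleotide substrate is cleaved and separated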
T4 sequence (whole entry): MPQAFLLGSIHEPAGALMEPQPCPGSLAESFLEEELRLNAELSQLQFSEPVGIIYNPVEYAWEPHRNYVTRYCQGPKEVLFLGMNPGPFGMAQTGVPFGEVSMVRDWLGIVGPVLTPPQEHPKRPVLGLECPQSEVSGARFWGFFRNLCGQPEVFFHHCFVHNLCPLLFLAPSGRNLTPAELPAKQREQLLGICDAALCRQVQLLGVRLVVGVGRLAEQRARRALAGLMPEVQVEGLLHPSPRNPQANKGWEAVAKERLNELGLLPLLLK
Description: Inhibition of SMUG1 by quantifying inhibition of SMUG1-mediated cleavage and dissociation of quenched duplex DNA oligonucleotides, measured as fluorescence at 594 nm. To generate a functional strand incision and increase turn-over this assay is coupled to APE1.

[9] = target: G/T mismatch-specific thymine DNA glycosylase (Homo sapiens) (UniProt Q13569); details: Compound Concentration 10.0 uM;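 further: human TDG cleavage of quenched duplex DNA oligonucleotides coupled to APE1, strand release read as fluorescence at 594 nm, inhibition of TDG activity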
Chain of G/T mismatch-specific thymine DNA glycosylase (Homo sapiens) (Q13569 whole entry): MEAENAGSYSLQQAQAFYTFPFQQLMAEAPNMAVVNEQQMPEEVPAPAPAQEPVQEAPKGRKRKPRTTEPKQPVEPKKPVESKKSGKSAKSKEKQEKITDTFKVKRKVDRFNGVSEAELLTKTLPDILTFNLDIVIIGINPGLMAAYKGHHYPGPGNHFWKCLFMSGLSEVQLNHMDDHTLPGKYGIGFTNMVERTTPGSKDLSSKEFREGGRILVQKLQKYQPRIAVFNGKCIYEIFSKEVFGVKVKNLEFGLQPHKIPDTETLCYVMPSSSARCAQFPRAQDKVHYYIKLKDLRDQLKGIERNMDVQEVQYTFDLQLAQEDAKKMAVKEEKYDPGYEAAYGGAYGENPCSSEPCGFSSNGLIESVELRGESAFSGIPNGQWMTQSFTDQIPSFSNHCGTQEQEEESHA
Description: Inhibition of TDG by quantifying inhibition of TDG-mediated cleavage and dissociation of quenched duplex DNA oligonucleotides, measured as fluorescence at 594 nm. To generate a functional strand incision and increase turn-over this assay is coupled to APE1.

[10] = target: Uracil-DNA glycosylase (Homo sapiens) (UniProt P13051); details: Compound Concentration 10.0 uM, Hit No;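 further: UNG excision on a quenched double-stranded DNA oligo probe, with APE1 added for strand incision and turnover, read as fluorescence at 594 nm as strands separate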
Chain of Uracil-DNA glycosylase (Homo sapiens) (P13051 whole entry): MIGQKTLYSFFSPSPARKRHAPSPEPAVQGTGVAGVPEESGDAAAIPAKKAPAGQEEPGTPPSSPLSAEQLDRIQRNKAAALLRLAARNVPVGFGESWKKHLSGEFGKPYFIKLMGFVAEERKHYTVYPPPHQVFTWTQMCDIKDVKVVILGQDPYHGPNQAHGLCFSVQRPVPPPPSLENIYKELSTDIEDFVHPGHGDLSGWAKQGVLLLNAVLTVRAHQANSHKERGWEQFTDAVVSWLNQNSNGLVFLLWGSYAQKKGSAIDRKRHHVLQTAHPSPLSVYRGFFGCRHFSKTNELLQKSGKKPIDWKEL
Description: Inhibition of UNG by quantifying inhibition of UNG-mediated cleavage and dissociation of quenched duplex DNA oligonucleotides, measured as fluorescence at 594 nm. To generate a functional strand incision and increase turn-over this assay is coupled to APE1.

Compound CCOC(=O)c1c(C)[nH]c2ccc3c(c12)CN1CCc2cc(OC)ccc2C1O3 (stereo not given) has an inhibition [1] of 29.1%, an inhibition [2] of 18.6% and an inhibition [3] of 18.2%. It also gave an inhibition [4] of -0.0556%, an inhibition ([5]; Hit No) of 3.01% and an inhibition [6] of -1.01%. For the same compound, the inhibition [7] was 32.3%, the inhibition [8] was 8.69% and the inhibition ([9]; Hit No) was 29.8%. For the same compound, the inhibition [10] was -1.04%.

Compound CCCCCC(O)/C=C/[C@H]1C(=O)CC(O)C1C/C=C\CCCC(=O)O (stereo not given in full) has an inhibition [1] of 33.6%, an inhibition [2] of 15.9% and an inhibition [3] of 12.9%. For the same compound, the inhibition [4] was 5.49%, the inhibition ([5]; Hit Yes) was 41.2% and the inhibition [6] was 12.9%. The inhibition [7] was 8.62%, the inhibition [8] was -9.9% and the inhibition ([9]; Hit No) was 32%. For the same compound, the inhibition [10] was -3.89%.

CCOC(=O)c1ccc(N2C(=O)C(O)=C(C(=O)c3ccc(OC)cc3)C2c2ccc(F)cc2)cc1 (stereo not given) showed an inhibition [1] of 55.1%, an inhibition [2] of 15.7% and an inhibition [3] of 62.9%. It also gave an inhibition [4] of 11.9%, an inhibition ([5]; Hit No) of 0.414% and an inhibition [6] of 21.2%. It also gave an inhibition [7] of -5.97%, an inhibition [8] of 1.4% and an inhibition ([9]; Hit No) of 46.7%. The inhibition [10] was 1.33%.

For CC(C)C[C@@H](C(=O)N[C@@H](Cc1ccc(OCc2ccccc2)cc1)C(=O)NC(C)(C)C)N(C)Cc1ccc(C(C)(C)C)cc1, the inhibition [1] was 16.1%, the inhibition [2] was 6.32% and the inhibition [3] was 5.01%. The inhibition [4] was 2.38%, the inhibition ([5]; Hit No) was -9.01% and the inhibition [6] was 23.7%. For the same compound, the inhibition [7] was 14.7%, the inhibition [8] was -4.08% and the inhibition ([9]; Hit No) was 11.4%. It also gave an inhibition [10] of -6.44%.

With C[C@H](N)COC(=O)[C@@H](CCCCN)NC(=O)Cc1c(-c2ccc3ccccc3c2)[nH]c2c1ccc1ccccc12 the inhibition [1] was 95.3% and 102%, the inhibition [2] was 58.5% and 61.8% and the inhibition [3] was 122% and 125%. The inhibition [4] was 2.76% and 13.3%, the inhibition ([5]; Hit No) was 14.7% and 12.7% and the inhibition [6] was 5.59%. For the same compound, the inhibition [7] was -2.94% and 9.96%, the inhibition [8] was 4.71% and the inhibition ([9]; Hit Yes) was 88.5% and 91%. For the same compound, the inhibition [10] was 4.7% and 1.53%.

For O=C(O)Cn1c(C(=O)Nc2nc(-c3ccccc3Cl)cs2)cc2ccccc21, the inhibition [1] was 38.1%, the inhibition [2] was 17.4% and the inhibition [3] was 40.1%. For the same compound, the inhibition [4] was -4.5%, the inhibition ([5]; Hit No) was 0.265% and the inhibition [6] was -9.07%. It also gave an inhibition [7] of 6.47%, an inhibition [8] of 5.06% and an inhibition ([9]; Hit No) of 39.6%. It also gave an inhibition [10] of -4.79%.

Work on COC(=O)c1cc2c(cn1)[nH]c1ccccc12 yielded an inhibition [1] of 8.08%, an inhibition [2] of 11.4% and an inhibition [3] of 41.5%. The inhibition [4] was 5.05%, the inhibition ([5]; Hit No) was 22.6% and the inhibition [6] was 2.22%. The inhibition [7] was 0.163%, the inhibition [8] was 2.02% and the inhibition ([9]; Hit No) was 11%. For the same compound, the inhibition [10] was -4.88%.

With COc1cc(Br)c(S(=O)(=O)Nc2ccc(C(F)(F)F)c(O[C@@H]3CCN(C)C3)c2)cc1OC the inhibition [1] was -1.76%, the inhibition [2] was -9.93% and the inhibition [3] was -3.82%. It also gave an inhibition [4] of -6.66%, an inhibition ([5]; Hit No) of -4.68% and an inhibition [6] of 13.8%. It also gave an inhibition [7] of -7.69%, an inhibition [8] of -0.0706% and an inhibition ([9]; Hit No) of -0.305%. It also gave an inhibition [10] of -6.21%.

Compound COc1cc([N+](=O)[O-])ccc1NC(=O)c1ccccc1O has an inhibition [1] of 0.275%, an inhibition [2] of -4.2% and an inhibition [3] of 4.12%. For the same compound, the inhibition [4] was 3.86%, the inhibition ([5]; Hit No) was 8.06% and the inhibition [6] was -0.258%. For the same compound, the inhibition [7] was -1.87%, the inhibition [8] was 9.42% and the inhibition ([9]; Hit No) was 9.09%. The inhibition [10] was -6.06%.

In the case of Nc1ncnc2c1ncn2[C@@H]1O[C@H](COP(=O)(O)OP(=O)(O)O)[C@@H](O)[C@H]1O, the inhibition [1] is reported as 10.8%, the inhibition [2] is reported as -6.47% and the inhibition [3] is reported as 18.3%. For the same compound, the inhibition [4] was 8.75%, the inhibition ([5]; Hit No) was 1.69% and the inhibition [6] was 11.3%. The inhibition [7] was -9.66%, the inhibition [8] was -0.127% and the inhibition ([9]; Hit No) was 26.4%. It also gave an inhibition [10] of -1.19%.

Source: ChEMBL document CHEMBL5665443, “Enzyme Inhibitor Single Concentration assay results for EUbOPEN Chemogenomics Library” (2024)
